Laboratory results reported in patent publication US20110136727A1, “Compositions and methods for rapid selection of pathogen binding agents” (priority 2009, published 2011).
Where a SMILES comes first, the peptide text is derived from it. Where no end group is shown, it is not given here.

System: E. coli O111:B4
Assay: LPS competition assay on random-sequence peptide microarray (binding of fluorescently labeled bacteria with and without excess free LPS)
Conditions: fluorescent intensity of SYTO 9 labeled E. coli O111:B4 binding to the arrayed peptide without vs with excess non-labeled LPS of the same strain
Protocol: FIG. 2. Schematic representation of the bacterial binding assay. PEG3,400 linker modified random sequence peptide microarrays were incubated (FIG. 2A) with fluorescently labeled bacteria and (FIG. 2B) with bacteria in presence of excess free LPS.
Microarray screening. Aliquots of the bacterial cultures were centrifuged to isolate the cells and were washed twice with an equal volume of PBS buffer (pH 7.2). After each wash, bacteria were resuspended and centrifuged. Cells were fluorescently stained with SYTO 9 green-fluorescent cell-permeable nucleic acid dye (Molecular Probes, Eugene, Oreg.). Dye was added to a 500 microliter suspension of bacteria at a concentration of 20 μM in PBS buffer and shaken for 1 hr at 37 degrees Centigrade. After incubation, the cell suspension was centrifuged, isolated, and washed twice with 1 ml PBS buffer. […] Each array was equipped with an Agilent hybridization chamber, and then 450 microliter solution of E. coli in PBS buffer supplemented with 0.03% FBS was added. The arrays were gently shaken on a platform for 1 hr at 37 degrees Centigrade temperature. After incubation, the hybridization chamber was removed, and unbound cells were washed away from the array by dipping it into a 50 ml solution of the hybridization buffer. This step was repeated twice, and the buffer was changed between washings. A final wash with nanopure water was used to remove salts from the array. Slides were then briefly centrifuged at 1500 rpm for 2 min to dry the arrays.
Data analysis. The arrays were scanned using a laser scanner (PERKIN-ELMER PROSCANARRAY HT) and quantified using GENEPIX PRO6.0 (Molecular Devices, Inc.) in order to determine the fluorescence intensity of each probe and identify its corresponding peptide sequence. A statistical comparison of microarray data was done with GENESPRING GX 7.3 (AGILENT, INC, Palo Alto, Calif., USA) by importing the image-processed data from GENEPIX PRO6.0. Median signal intensities were used in the calculations. For statistical comparisons, each slide was normalized to 50th percentile. Also, measurements of less than 0.01 were set to 0.01. Results were represented on a heatmap in order to be able to compare the difference in intensities with and without excess LPS.
LPS competition assay. Since approximately 90% of bacterial surface is comprised of LPS it was expected that bacteria will bind to random peptide microarray mostly through LPS. […] Same number of cells stained with SYTO-9® was used to probe the microarrays with and without excess non-labeled LPS from the same strain (FIG. 2).

Row | Compound | Ratio ECO/(ECO + LPS)
1 | 1 (WWRRKKWHKHKRKHPRFGSC) [compound 1] | 18.76
2 | 2 (HWKRRHKHKWPKRHPHKGSC) [compound 2] | 13.22
3 | 3 (HWKRHHRPKHKHHRHKHGSC) [compound 3] | 11.48
4 | 4 (HFHHWKWKHHHHRHRRFGSC) [compound 4] | 11.28
5 | 5 (WKKKRKHRHKKHWHPWRGSC) [compound 5] | 10.3
6 | 6 (RHWRKPRKWHKKWPPHRGSC) [compound 6] | 9.881
7 | 7 (WKRPWHRWHPKRRKWRHGSC) [compound 7] | 9.611
8 | 8 (WHHWFHHKKKKPWWKKKGSC) [compound 8] | 8.832
9 | 9 (HFRKWHKRRWKHHKKWKGSC) [compound 9] | 8.435
10 | 10 (HPWWWHHKKRRHHKHKKGSC) [compound 10] | 5.345
11 | 11 (PWWKWRKRKHPKKHHKRGSC) [compound 11] | 4.687
12 | 12 (WKWKRHWKWPHRRKHFFGSC) [compound 12] | 4.576
13 | 13 (WHRKFFRWRFHRHKKHKGSC) [compound 13] | 4.547
14 | 14 (HRKRPKRHHKRHWPRWKGSC) [compound 14] | 4.429
15 | 15 (KKFHPHFKPWHFRHKKPGSC) [compound 15] | 4.303
16 | 16 (KHPFWHPHRRHKKKRWFGSC) [compound 16] | 4.283
17 | 17 (WHHKWRFWKHFRHKRHFGSC) [compound 17] | 4.216
18 | 18 (SIADIHKRKFRVRRKHIGSC) [compound 18] | 4.04
19 | 19 (PWKFHRHWHHHKHWKWKGSC) [compound 19] | 3.644
20 | 20 (HHWWRKRRRKRHRKHWKGSC) [compound 20] | 3.527
21 | 21 (RWQKKVKMKRDHVYFRMGSC) [compound 21] | 3.526
22 | 22 (RWFPKKHHHRWRKWWKKGSC) [compound 22] | 3.506
23 | 23 (HHHHKRKHFWRPRHPRKGSC) [compound 23] | 3.493
24 | 24 (HKRHKKHFKFFRWHRKWGSC) [compound 24] | 3.428
25 | 25 (TKRIHKWPQDAYRIRRGGSC) [compound 25] | 3.355
26 | 26 (RTYWNYGIMRHNKTRKGGSC) [compound 26] | 3.331
27 | 27 (WHWHHWKHKKRRHHWRRGSC) [compound 27] | 3.261

Row | Compound | Ratio ECO/(ECO + LPS)
28 | 28 (KHWHWHKRKKHHRKFFWGSC) [compound 28] | 3.0313
29 | 29 (RKHHKKPHKRKRWKWWPGSC) [compound 29] | 3.021
30 | 30 (RFHWKHRRKWKHHHPRRGSC) [compound 30] | 2.944
31 | 31 (HWHHRWWHHWKHPHHWRGSC) [compound 31] | 2.854
32 | 32 (WKFRHRHHRHHWHKKWKGSC) [compound 32] | 2.844
33 | 33 (HRKPKFRHHHFKWKHWKGSC) [compound 33] | 2.786
34 | 34 (RRWWRKRFWHHRWHRRKGSC) [compound 34] | 2.423
35 | 35 (HRWWFKKKHRFRWWKRWGSC) [compound 35] | 2.404
36 | 36 (RFFFHKWRRWRRRKPPRGSC) [compound 36] | 2.378
37 | 37 (RWRRHKHFKRPHRKHKRGSC) [compound 37] | 2.375
38 | 38 (WWHHKWFKHKKFWRHKFGSC) [compound 38] | 2.349
39 | 39 (WKPWFHPRKHHKWRHWHGSC) [compound 39] | 2.334
40 | 40 (KHKWWRWHKWHWWFRKHGSC) [compound 40] | 2.322
41 | 41 (KWKHHKKFRKRKRHWFHGSC) [compound 41] | 2.316
42 | 42 (HWHPRWHKHKFKHWRWHGSC) [compound 42] | 2.273
43 | 43 (WRFKHFRWKRFKHHHKKGSC) [compound 43] | 2.263
44 | 44 (IYNKRSQVRRKGFKKKYGSC) [compound 44] | 2.169
45 | 45 (RKRKWHHPWHWRRKRRWGSC) [compound 45] | 2.136
46 | 46 (RHWRPKFRKFRWWRWHHGSC) [compound 46] | 2.125
47 | 47 (FHKKRHFKRRHKFWWWRGSC) [compound 47] | 2.114
48 | 48 (HKWHRKKFHKHRFKHHKGSC) [compound 48] | 2.112
49 | 49 (WFWKHKKWRRHPRKWHWGSC) [compound 49] | 2.104
50 | 50 (EPKLWFKPRRGGYRHRHGSC) [compound 50] | 2.035
51 | 51 (HRKWHWPWKWPWKRKRWGSC) [compound 51] | 2.033
52 | 52 (RPKPHRHWKPKFPHHHWGSC) [compound 52] | 2.031
53 | 53 (WRRSTPVGPWTWFGKFLGSC) [compound 53] | 1.974
54 | 54 (RRFRHWWRWRKRRRKWRGSC) [compound 54] | 1.914

System: not listed separately
Assay: Serum stability (serum incubation and western blot)
Type: in vitro ADME, human
Conditions: fresh human serum, 37° C., pH=7.4, starting concentration 10 μM, western blot
Protocol: Serum stability of Construct 1. Over the last decade, there was a considerable interest in developing antimicrobial peptides as intravenously administered antibiotics. In this respect, a common criticism of peptide-based drugs has been their susceptibility to endogenous proteases. […] To test the in vitro stability of Construct 1 we used a serum-incubation and western blot analysis. Construct 1 was incubated in fresh human serum at 37° C. and pH=7.4 with a starting concentration of 10 μM. Samples were withdrawn at predetermined time points and each sample diluted 20-fold with loading buffer prior to analysis by western blot (FIG. 7).

Row | Compound | Time for which proteolysis was resisted
55 | Construct 1: tetravalent mPEG-maleimide (MW 20 kDa) conjugated with QF8 peptide (HRKPKFRHHHFKWKHWKGSC; also: conjugated with tetravalent 20 kDa mPEG-maleimide) | more than 8 hours

Same assay, conditions: human serum, western blot probed with Streptavidin-AlexaFluor 647 (FIG. 7)

Row | Compound | Degradation in human serum, monomeric peptide vs tetravalent PEG scaffold
56 | N=C(N)NCCC[C@H](NC(=O)[C@H](Cc1ccccc1)NC(=O)[C@H](CCCCN)NC(=O)[C@@H]1CCCN1C(=O)[C@H](CCCCN)NC(=O)[C@H](CCCNC(=N)N)NC(=O)[C@@H](N)Cc1c[nH]cn1)C(=O)N[C@@H](Cc1c[nH]cn1)C(=O)N[C@@H](Cc1c[nH]cn1)C(=O)N[C@@H](Cc1c[nH]cn1)C(=O)N[C@@H](Cc1ccccc1)C(=O)N[C@@H](CCCCN)C(=O)N[C@@H](Cc1c[nH]c2ccccc12)C(=O)N[C@@H](CCCCN)C(=O)N[C@@H](Cc1c[nH]cn1)C(=O)N[C@@H](Cc1c[nH]c2ccccc12)C(=O)N[C@@H](CCCCN)C(=O)NCC(=O)N[C@@H](CO)C(=O)N[C@@H](CS)C(=O)O [SEQ ID NO: 33] (H-HRKPKFRHHHFKWKHWKGSC-OH; N-terminus and C-terminus assumed) | degraded much faster
57 | Construct 1: tetravalent mPEG-maleimide (MW 20 kDa) conjugated with QF8 peptide (HRKPKFRHHHFKWKHWKGSC; also: conjugated with tetravalent 20 kDa mPEG-maleimide) | prolonged the half-life

System: LPS
Assay: not given
Conditions: Morales et al., 2009; cited from earlier work

Row | Compound | Binding to the bacteria and to LPS
58 | EFSNPTAQVFPDFWMSDGSC [NEG-1, negative control peptide, reference compound] | bind neither to the bacteria nor to LPS

System: E. coli O111:B4
Assay: In vitro growth inhibition assay (turbidity at 600 nm)
Type: cell-based
Conditions: added at mid-logarithmic phase, QF8 at 25 micrometers, NEG-1 at 100 micrometers, Construct 1 at 7, 10, and 25 micrometers, vs untreated bacteria
Protocol: FIG. 6. Bacterial growth inhibition assays in presence of (a) growth media; (b) negative control peptide NEG1 at 100 micromolar; (c) 25 micromolar peptide QF8 (SEQ ID NO: 33 Table 2); (d) 7 micrommolar QF8-PEG Construct 1; (e) 10 micromolar QF8-PEG Construct 1; (f) 17.5 micromolar QF8-PEG construct 1; (g) 25 micromolar QF8-PEG Construct 1; (h) 100 IU penicillin/streptomycin as a positive control.
In vitro growth inhibition assays. Growth of E. coli O111:B4 was assessed in the presence of different concentrations of NEG-1, QF8, and Construct 1 using turbidity at 600 nm. […]
In vitro inhibition assays. […] Growth was monitored as turbidity at 600 nm. Experiments were performed at 30 degrees Centigrade in microtiter plates with 100 microliters of culture using a Spectra Max Plus microtiter plate reader with Soft Max Pro Software (Molecular devices). The turbidity was measured every 5 minutes and the plate was shaken for 30 seconds before each measurement. Bacteria concentration was calculated according to the McFarland general method using the absorbance at 600 nm of a series of mixtures of 1% barium chloride and 1% sulfuric acid.

Row | Compound | Growth of E. coli O111:B4 (growth curves, bacterial count)
59 | Construct 1: tetravalent mPEG-maleimide (MW 20 kDa) conjugated with QF8 peptide (HRKPKFRHHHFKWKHWKGSC; also: conjugated with tetravalent 20 kDa mPEG-maleimide) | dramatic decrease in bacterial count
60 | EFSNPTAQVFPDFWMSDGSC [NEG-1, negative control peptide, reference compound] | no changes
